For this test, the target named is T1, PIK3CA_C242 (Homo sapiens, UniProt P42336).
T1 construct: endogenous in cells; host or cells: Jurkat cell lysate
The test can be described thus: Proteomic TE50 (IA-DTB / TMT mass spectrometry) in Jurkat cell lysate. The format is binding. Particulars: 1 hour at rt, 7-point dose response. The procedure: Example 4. Proteomic TE50 In vitro TE50 values for PIK3CA_C242 were obtained by treating 500 μg of cell lysate generated from Jurkat cells with DMSO or compound for 1 hour at rt followed by the addition of 200 μM desthiobiotin polyethyleneoxide iodoacetamide (IA-DTB) in DMSO for one hour at rt. Compounds were serially diluted 1:5 for a total of 7 points in order to generate dose response curves. Samples were then precipitated by the addition of 8× ice cold acetone and incubated at -80° C. for two hours. Protein was then pelleted by centrifugation (4,200 RPM, 45 min, 4° C.). The pelleted material was resuspended in 9M urea, 50 mM ammonium bicarbonate and proteins were reduced and alkylated by the addition of DTT and iodoacetamide (10 and 30 mM, respectively). Following reduction and alkylation, samples were exchanged into 2M urea (Zeba spin desalting plates, Thermo Fisher) and digested with Trypsin. IA-DTB labeled peptides were isolated with streptavidin agarose resin. Enriched peptides were eluted by the addition of 50% acetonitrile (ACN) 0.1% formic acid (FA) and dried in a SpeedVac vacuum concentrator. […] Reactions were quenched by the addition of 6.5 μL of 5% hydroxylamine. Samples were then combined and desalted on a Evolute express ABN plate (Biotage, 600-0010-PX01). Targeted TMT measurements were collected using an Orbitrap Lumos Tribrid Mass Spectrometer (Thermo Scientific) coupled to an UltiMate 3000 Series Rapid Separation LC system and autosampler (Thermo Scientific Dionex). Peptides were eluted onto a custom C18 capillary analytical column (75-μm inner diameter fused silica, packed with Acclaim PepMap C18 resin; Thermo Scientific) using an Acclaim PepMap 100 (Thermo 164535) loading column, and separated at a flow rate of […]. Data were acquired using a specific MS3-based TMT method targeting the peptide containing […], +2 charge state) where MS2 peptide fragmentation is triggered upon detection of the peptide precursor ion. Subsequent MS3 analysis was then performed using pre-selected peptide fragment ions that were isolated for fragmentation using synchronous precursor selection. RAW files were converted to MZXML format and searched with the SEQUEST algorithm using the […] software package. TMT quantitation was performed with a filter requiring at least ten summed signal-to-noise (S/N) for control channels. TE50 values were calculated from 7-point dose response curves created using the reporter ion S/N for each channel.

This passage reports IC50 results from US20250026721A1, “COMPOUNDS AND METHODS FOR MODULATING RAS-PI3K” (Vividion Therapeutics, Inc., priority 2023, published 2025).

T1 sequence (P42336 whole entry): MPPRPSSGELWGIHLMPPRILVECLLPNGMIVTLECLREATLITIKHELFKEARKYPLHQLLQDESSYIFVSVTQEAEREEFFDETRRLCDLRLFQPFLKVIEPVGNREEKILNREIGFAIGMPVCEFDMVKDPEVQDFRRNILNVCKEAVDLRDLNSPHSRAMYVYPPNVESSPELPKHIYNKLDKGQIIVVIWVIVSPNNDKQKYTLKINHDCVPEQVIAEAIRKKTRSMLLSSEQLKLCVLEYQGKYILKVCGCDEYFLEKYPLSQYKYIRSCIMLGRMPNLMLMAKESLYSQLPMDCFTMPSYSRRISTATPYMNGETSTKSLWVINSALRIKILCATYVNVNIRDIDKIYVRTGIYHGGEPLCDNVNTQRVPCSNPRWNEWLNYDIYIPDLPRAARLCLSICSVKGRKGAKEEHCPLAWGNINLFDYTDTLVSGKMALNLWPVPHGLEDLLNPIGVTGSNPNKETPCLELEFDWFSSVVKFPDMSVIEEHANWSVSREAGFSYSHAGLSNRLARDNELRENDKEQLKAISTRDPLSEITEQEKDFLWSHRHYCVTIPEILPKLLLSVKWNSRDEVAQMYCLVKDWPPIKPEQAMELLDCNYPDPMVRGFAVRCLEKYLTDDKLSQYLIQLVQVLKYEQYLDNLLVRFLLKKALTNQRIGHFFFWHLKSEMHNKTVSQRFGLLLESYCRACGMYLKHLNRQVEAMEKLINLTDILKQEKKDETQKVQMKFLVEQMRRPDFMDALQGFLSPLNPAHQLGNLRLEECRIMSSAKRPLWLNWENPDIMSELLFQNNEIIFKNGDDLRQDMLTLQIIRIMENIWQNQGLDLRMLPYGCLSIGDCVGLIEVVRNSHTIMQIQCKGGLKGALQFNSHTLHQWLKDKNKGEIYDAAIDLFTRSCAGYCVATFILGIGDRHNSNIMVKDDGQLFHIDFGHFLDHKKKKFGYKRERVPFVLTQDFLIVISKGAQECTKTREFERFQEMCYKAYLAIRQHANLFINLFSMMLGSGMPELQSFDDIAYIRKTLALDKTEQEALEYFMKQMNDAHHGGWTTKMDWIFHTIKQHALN
T1 sequence (P27986 whole entry partner): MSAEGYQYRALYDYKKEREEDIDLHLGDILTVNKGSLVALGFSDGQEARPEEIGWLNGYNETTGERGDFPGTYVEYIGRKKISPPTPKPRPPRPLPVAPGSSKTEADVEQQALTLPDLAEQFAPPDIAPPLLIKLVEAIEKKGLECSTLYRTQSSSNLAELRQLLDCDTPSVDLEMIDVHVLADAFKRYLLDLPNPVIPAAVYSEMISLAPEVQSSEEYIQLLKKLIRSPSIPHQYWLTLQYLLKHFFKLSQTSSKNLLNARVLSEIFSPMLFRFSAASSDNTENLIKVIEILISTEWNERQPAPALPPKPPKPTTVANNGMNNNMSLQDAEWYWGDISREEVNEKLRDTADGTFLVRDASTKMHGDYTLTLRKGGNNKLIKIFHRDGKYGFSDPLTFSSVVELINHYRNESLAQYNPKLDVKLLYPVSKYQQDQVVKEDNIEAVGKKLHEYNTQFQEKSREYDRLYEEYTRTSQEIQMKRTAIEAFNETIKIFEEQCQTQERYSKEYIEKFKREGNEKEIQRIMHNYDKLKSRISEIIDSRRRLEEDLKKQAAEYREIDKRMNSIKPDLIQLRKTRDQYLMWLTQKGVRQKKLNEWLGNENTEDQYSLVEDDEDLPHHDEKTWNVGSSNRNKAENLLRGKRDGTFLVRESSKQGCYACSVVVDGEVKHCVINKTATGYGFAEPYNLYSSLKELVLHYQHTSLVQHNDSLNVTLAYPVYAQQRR

In general, IC50 refers to the point on the concentration scale where inhibition reaches its midpoint. `C[C@H](/C=C\S(C)(=O)=O)NC(=O)C1(F)CCN(C(=O)[C@@H]2CN(C(=O)OC(C)(C)C)C[C@@H]2c2ccccc2Cl)CC1` (racemic) [Compound 158, tert-butyl(3RS,4RS)-3-(2-chlorophenyl)-4-(4-fluoro-4-(((R,Z)-4-(methylsulfonyl)but-3-en-2-yl)carbamoyl)piperidine-1-carbonyl)pyrrolidine-1-carboxylate] gave an IC50 of 895 nM.
In the case of `CN(C)c1ccc(S(=O)(=O)N2CCC(F)(C(=O)NC/C=C/C#N)CC2)c(-c2ccccc2Cl)c1` [Compound 97, (E)-1-((2′-chloro-5-(dimethylamino)-[1,1′-biphenyl]-2-yl)sulfonyl)-N-(3-cyanoallyl)-4-fluoropiperidine-4-carboxamide] it was 370 nM; in that of `COc1cccc(-c2cc(Cl)cnc2S(=O)(=O)N2CCC(F)(C(=O)N[C@@H](C)/C=C\S(C)(=O)=O)CC2)c1` [Compound 200, (S,Z)-1-((5-chloro-3-(3-methoxyphenyl)pyridin-2-yl)sulfonyl)-4-fluoro-N-(4-(methylsulfonyl)but-3-en-2-yl)piperidine-4-carboxamide], 788 nM; in that of `COc1ccc(S(=O)(=O)N2CCC(F)(C(=O)N3CC(/C=C\S(C)(=O)=O)C3)CC2)c(-c2ccccc2Cl)c1` [Compound 230, (Z)-(1-((2′-chloro-5-methoxy-[1,1′-biphenyl]-2-yl)sulfonyl)-4-fluoropiperidin-4-yl)(3-(2-(methylsulfonyl)vinyl)azetidin-1-yl)methanone], 140 nM.
In the case of `N#C/C=C/CNC(=O)C1(F)CCN(S(=O)(=O)c2cnc(Br)cc2-c2ccccc2Cl)CC1` [Compound 278, (E)-1-((6-bromo-4-(2-chlorophenyl)pyridin-3-yl)sulfonyl)-N-(3-cyanoallyl)-4-fluoropiperidine-4-carboxamide] it was 240 nM; in that of `CS(=O)(=O)/C=C/CNC(=O)C1(F)CCN(S(=O)(=O)c2ccc(Cl)cc2-c2ccccc2)CC1` [Compound 37, (E)-1-((5-chloro-[1,1′-biphenyl]-2-yl)sulfonyl)-4-fluoro-N-(3-(methylsulfonyl)allyl)piperidine-4-carboxamide], 297 nM; in that of `CN(C)c1ccc(S(=O)(=O)N2CCC(F)(C(=O)NC/C=C/S(C)(=O)=O)CC2)c(-c2ccccc2)c1` [Compound 94, (E)-1-((5-(dimethylamino)-[1,1′-biphenyl]-2-yl)sulfonyl)-4-fluoro-N-(3-(methylsulfonyl)allyl)piperidine-4-carboxamide], 190 nM.
For `CC#Cc1cccc(-c2cc(Cl)ccc2S(=O)(=O)N2CCC(F)(C(=O)NC/C=C/S(C)(=O)=O)CC2)c1` [Compound 46, (E)-1-((5-chloro-3′-(prop-1-yn-1-yl)-[1,1′-biphenyl]-2-yl)sulfonyl)-4-fluoro-N-(3-(methylsulfonyl)allyl)piperidine-4-carboxamide] the value was 460 nM; for `C[C@@H](/C=C\S(C)(=O)=O)NC(=O)C1(F)CCN(S(=O)(=O)c2ccc(Cl)cc2-c2cccc(OCc3ccccc3)c2)CC1` [Compound 268, (S,Z)-1-((3′-(benzyloxy)-5-chloro-[1,1′-biphenyl]-2-yl)sulfonyl)-4-fluoro-N-(4-(methylsulfonyl)but-3-en-2-yl)piperidine-4-carboxamide], 356 nM.
With `COc1ccc(S(=O)(=O)N2CCC(F)(C(=O)NC/C=C/S(C)(=O)=O)CC2)c(-c2cccc(Cl)c2)c1` [Compound 41, (E)-1-((3′-chloro-5-methoxy-[1,1′-biphenyl]-2-yl)sulfonyl)-4-fluoro-N-(3-(methylsulfonyl)allyl)piperidine-4-carboxamide], the 50% inhibitory concentration (IC50) was determined as 290 nM.
In the case of `COc1cccc(-c2ccccc2S(=O)(=O)N2CCC(F)(C(=O)NC/C=C/S(=O)(=O)C3CCN(C)CC3)CC2)c1` [Compound 228, (E)-4-fluoro-1-((3′-methoxy-[1,1′-biphenyl]-2-yl)sulfonyl)-N-(3-((1-methylpiperidin-4-yl)sulfonyl)allyl)piperidine-4-carboxamide] it was 690 nM; in that of `CS(=O)(=O)/C=C/CNC(=O)C1(F)CCN(S(=O)(=O)c2ccc(Cl)cc2-c2cccc(Cl)c2)CC1` [Compound 45, (E)-1-((3′,5-dichloro-[1,1′-biphenyl]-2-yl)sulfonyl)-4-fluoro-N-(3-(methylsulfonyl)allyl)piperidine-4-carboxamide], 420 nM; in that of `COc1cc(-c2ccccc2)c(S(=O)(=O)N2CCC(F)(C(=O)NC/C=C/S(C)(=O)=O)CC2)cn1` [Compound 191, (E)-4-fluoro-1-((6-methoxy-4-phenylpyridin-3-yl)sulfonyl)-N-(3-(methylsulfonyl)allyl)piperidine-4-carboxamide], 950 nM.
For `COc1ccc(S(=O)(=O)N2CCC(F)(C(=O)N[C@@H](C)/C=C\S(C)(=O)=O)CC2)c(-c2ccccc2C)c1` [Compound 12, (S,Z)-4-fluoro-1-((5-methoxy-2′-methyl-[1,1′-biphenyl]-2-yl)sulfonyl)-N-(4-(methylsulfonyl)but-3-en-2-yl)piperidine-4-carboxamide] the value was 66 nM; for `COc1ccc(S(=O)(=O)N2CCC(F)(C(=O)NC/C=C\C#N)CC2)c(-c2ccccc2Cl)c1` [Compound 71, (Z)-1-((2′-chloro-5-methoxy-[1,1′-biphenyl]-2-yl)sulfonyl)-N-(3-cyanoallyl)-4-fluoropiperidine-4-carboxamide], 160 nM.
In the case of `CN(C)c1ccc(S(=O)(=O)N2CCC(F)(C(=O)NC/C=C/S(C)(=O)=O)CC2)c(-c2ccccc2Cl)c1` [Compound 95, (E)-1-((2′-chloro-5-(dimethylamino)-[1,1′-biphenyl]-2-yl)sulfonyl)-4-fluoro-N-(3-(methylsulfonyl)allyl)piperidine-4-carboxamide] it was 100 nM; in that of `COc1cc(-c2ccccc2C)c(S(=O)(=O)N2CCC(F)(C(=O)NC/C=C/S(C)(=O)=O)CC2)cn1` [Compound 189, (E)-4-fluoro-1-((6-methoxy-4-(o-tolyl)pyridin-3-yl)sulfonyl)-N-(3-(methylsulfonyl)allyl)piperidine-4-carboxamide], 263 nM; in that of `COc1ccc(S(=O)(=O)N2CCC(F)(C(=O)N[C@@H](C)/C=C\S(C)(=O)=O)CC2)c(-c2ccccc2Cl)c1` [Compound 11, (S,Z)-1-((2′-chloro-5-methoxy-[1,1′-biphenyl]-2-yl)sulfonyl)-4-fluoro-N-(4-(methylsulfonyl)but-3-en-2-yl)piperidine-4-carboxamide], 70.1 nM.
In turn, `CCc1ccc(S(=O)(=O)N2CCC(F)(C(=O)N[C@H](C)/C=C\S(C)(=O)=O)CC2)c(-c2ccccc2C)c1` [Compound 113, (R,Z)-1-((5-ethyl-2′-methyl-[1,1′-biphenyl]-2-yl)sulfonyl)-4-fluoro-N-(4-(methylsulfonyl)but-3-en-2-yl)piperidine-4-carboxamide] gave an IC50 of 170 nM.
In the case of `COc1ccc(S(=O)(=O)N2CCC(F)(C(=O)NC/C=C/S(C)(=O)=O)CC2)c(-c2ccccc2)c1` [Compound 38, (E)-4-fluoro-1-((5-methoxy-[1,1′-biphenyl]-2-yl)sulfonyl)-N-(3-(methylsulfonyl)allyl)piperidine-4-carboxamide] it was 644 nM; in that of `COc1cccc(-c2cc(Br)ccc2S(=O)(=O)N2CCC(F)(C(=O)N[C@@H](C)/C=C\S(C)(=O)=O)CC2)c1` [Compound 61, (S,Z)-1-((5-bromo-3′-methoxy-[1,1′-biphenyl]-2-yl)sulfonyl)-4-fluoro-N-(4-(methylsulfonyl)but-3-en-2-yl)piperidine-4-carboxamide], 66.7 nM.
`CC[C@H](/C=C\S(C)(=O)=O)NC(=O)C1(F)CCN(S(=O)(=O)c2ccc(N(C)C)cc2-c2ccccc2Cl)CC1` [Compound 85, (R,Z)-1-((2′-chloro-5-(dimethylamino)-[1,1′-biphenyl]-2-yl)sulfonyl)-4-fluoro-N-(1-(methylsulfonyl)pent-1-en-3-yl)piperidine-4-carboxamide] came in with a concentration for half-maximal inhibition (IC50) of 930 nM.
For `C[C@H](/C=C\S(C)(=O)=O)NC(=O)C1(F)CCN(S(=O)(=O)c2ccc(N3CCN(C(=O)OC(C)(C)C)CC3)cc2-c2ccccc2Cl)CC1` [Compound 118, tert-butyl (R,Z)-4-(2′-chloro-6-((4-fluoro-4-((4-(methylsulfonyl)but-3-en-2-yl)carbamoyl)piperidin-1-yl)sulfonyl)-[1,1′-biphenyl]-3-yl)piperazine-1-carboxylate] the value was 430 nM.
In the case of `C=Cc1ccc(S(=O)(=O)N2CCC(F)(C(=O)N[C@H](C)/C=C\S(C)(=O)=O)CC2)c(-c2ccccc2C)c1` [Compound 108, (R,Z)-4-fluoro-1-((2′-methyl-5-vinyl-[1,1′-biphenyl]-2-yl)sulfonyl)-N-(4-(methylsulfonyl)but-3-en-2-yl)piperidine-4-carboxamide] it was 120 nM.
